A short description of data set [1]: Human plasma half-life assay. The data set is classed as in vitro ADME. The following applies: 37° C., LC-MS, read-out: Human Plasma T½ (converted).
Data set [2] is described as follows: Rat plasma half-life assay. The note with it: 37° C., LC-MS, read-out: Rat Plasma T½ (converted). It is filed as in vitro ADME.
Data set [3] has as its target T1, human recombinant GIP receptor (Homo sapiens, UniProt P48546).
T1 construct: expressed in transfected cells; host or cells: CHO-K1 clonal cells (membrane preparation)
T1 sequence (P48546 22-466): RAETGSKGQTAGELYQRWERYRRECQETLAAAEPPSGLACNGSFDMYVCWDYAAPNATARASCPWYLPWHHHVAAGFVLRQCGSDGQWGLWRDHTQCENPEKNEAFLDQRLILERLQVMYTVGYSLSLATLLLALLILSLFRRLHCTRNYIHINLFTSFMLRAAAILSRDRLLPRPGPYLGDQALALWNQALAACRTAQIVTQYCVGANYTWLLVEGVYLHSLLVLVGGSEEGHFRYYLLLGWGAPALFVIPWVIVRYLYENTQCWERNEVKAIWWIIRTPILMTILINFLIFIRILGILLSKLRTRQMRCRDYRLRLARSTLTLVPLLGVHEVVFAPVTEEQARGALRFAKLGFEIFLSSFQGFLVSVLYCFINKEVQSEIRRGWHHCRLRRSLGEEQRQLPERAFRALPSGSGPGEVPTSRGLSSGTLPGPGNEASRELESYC
Kind of data set: In vitro hGIP receptor binding assay. The procedure:
A. In Vitro hGIP Receptor Binding Assay […] The incubations were terminated by rapid filtration through GF/C filters (pre-soaked in 0.5% polyethylenimine) using a Brandel filtration manifold. Each tube and filter were then washed three times with 5-ml aliquots of ice-cold buffer.

Where no end group is shown, it is not given here. [ ]: non-standard residue; d: D form. The star is where a group is joined. Desaminotyrosyl = O=C(CCc1ccc(O)cc1)*; Pip = O=C(O)[C@@H]1CCCCN1; Ac6c = NC1(C(=O)O)CCCCC1

This is an account of results in patent US8999940B2 (Ipsen Pharma S.A.S., priority 2008, dated 2015).

For orientation: Ki means the equilibrium dissociation constant of an inhibitor or competing ligand from its target. On to `CCCC[C@H](NC(=O)[C@H](C)NC(=O)[C@@H](NC(=O)C1(NC(=O)[C@H](Cc2ccc(O)cc2)NC(=O)[C@H](CC(=O)O)NC(=O)[C@H](CO)NC(=O)[C@@H](NC(=O)[C@H](Cc2ccccc2)NC(=O)[C@@H](NC(=O)CNC(=O)[C@H](CCC(=O)O)NC(=O)C(C)(C)NC(=O)[C@@H](N)Cc2ccc(O)c(Br)c2)[C@@H](C)O)[C@@H](C)CC)CCCC1)[C@@H](C)CC)C(=O)N[C@@H](CC(=O)O)C(=O)N[C@@H](CCCCN)C(=O)N[C@H](C(=O)N[C@@H](Cc1c[nH]cn1)C(=O)N[C@@H](CCC(N)=O)C(=O)N[C@@H](CCC(N)=O)C(=O)N[C@@H](CC(=O)O)C(=O)N[C@@H](Cc1ccccc1)C(=O)N[C@H](C(=O)N[C@@H](CC(N)=O)C(=O)N[C@@H](Cc1c[nH]c2ccccc12)C(=O)N[C@@H](CC(C)C)C(=O)N[C@@H](CC(C)C)C(=O)N[C@@H](C)C(=O)N[C@@H](CCC(N)=O)C(=O)N[C@@H](CCCCN)C(=O)NCC(=O)N[C@@H](CCCCN)C(=O)N[C@@H](CCCCN)C(=O)N[C@@H](CC(N)=O)C(=O)N[C@@H](CC(=O)O)C(=O)N[C@@H](Cc1c[nH]c2ccccc12)C(=O)N[C@@H](CCCCN)C(=O)N[C@@H](Cc1c[nH]cn1)C(=O)N[C@@H](CC(N)=O)C(=O)N[C@H](C(=O)N[C@H](C(=O)N[C@@H](CCC(N)=O)C(=O)O)[C@@H](C)O)[C@@H](C)CC)C(C)C)[C@@H](C)CC` [Example 15, (3Br-Tyr^1, Aib^2, A5c^11, Nle^14)hGIP(1-42)-OH], for which the half-life at 0.1 mg/ml in data set [1] is 50.6 h; in data set [2] it was 22.9 h. For the same compound, the Ki in data set [3] came out at 0.6 nM.
For `CC[C@H](C)[C@H](NC(=O)[C@H](CCCCN)NC(=O)[C@H](CC(=O)O)NC(=O)[C@H](CCSC)NC(=O)[C@H](C)NC(=O)[C@@H](NC(=O)C1(NC(=O)[C@H](Cc2ccc(O)cc2)NC(=O)[C@H](CC(=O)O)NC(=O)[C@H](CO)NC(=O)[C@@H](NC(=O)[C@H](Cc2ccccc2)NC(=O)[C@@H](NC(=O)CNC(=O)[C@H](CCC(=O)O)NC(=O)C(C)(C)NC(=O)[C@@H](N)Cc2cccnc2)[C@@H](C)O)[C@@H](C)CC)CCCC1)[C@@H](C)CC)C(=O)N[C@@H](Cc1c[nH]cn1)C(=O)N[C@@H](CCC(N)=O)C(=O)N[C@@H](CCC(N)=O)C(=O)N[C@@H](CC(=O)O)C(=O)N[C@@H](Cc1ccccc1)C(=O)N[C@H](C(=O)N[C@@H](CC(N)=O)C(=O)N[C@@H](Cc1c[nH]c2ccccc12)C(=O)N[C@@H](CC(C)C)C(=O)N[C@@H](CC(C)C)C(=O)N[C@@H](C)C(=O)N[C@@H](CCC(N)=O)C(=O)N[C@@H](CCCCN)C(=O)NCC(=O)N[C@@H](CCCCN)C(=O)N[C@@H](CCCCN)C(=O)N[C@@H](CC(N)=O)C(=O)N[C@@H](CC(=O)O)C(=O)N[C@@H](Cc1c[nH]c2ccccc12)C(=O)N[C@@H](CCCCN)C(=O)N[C@@H](Cc1c[nH]cn1)C(=O)N[C@@H](CC(N)=O)C(=O)N[C@H](C(=O)NC1(C(=O)N[C@@H](CCC(N)=O)C(=O)O)CCCC1)[C@@H](C)CC)C(C)C` [Example 34, (3-Pal^1, Aib^2, A5c^11, 41)hGIP(1-42)-OH] the same measures were more than 63 h, 16.3 h and 9.75 nM.
Taken in the same sequence, the figures for `CCCC[C@H](NC(=O)[C@H](C)NC(=O)[C@@H](NC(=O)C1(NC(=O)[C@H](Cc2ccc(O)cc2)NC(=O)[C@H](CC(=O)O)NC(=O)[C@H](CO)NC(=O)[C@@H](NC(=O)[C@H](Cc2ccccc2)NC(=O)[C@@H](NC(=O)CNC(=O)[C@H](CCC(=O)O)NC(=O)C(C)(C)NC(=O)[C@@H](N)Cc2ccc(O)c(I)c2)[C@@H](C)O)[C@@H](C)CC)CCCC1)[C@@H](C)CC)C(=O)N[C@@H](CC(=O)O)C(=O)N[C@@H](CCCCN)C(=O)N[C@H](C(=O)N[C@@H](Cc1c[nH]cn1)C(=O)N[C@@H](CCC(N)=O)C(=O)N[C@@H](CCC(N)=O)C(=O)N[C@@H](CC(=O)O)C(=O)N[C@@H](Cc1ccccc1)C(=O)N[C@H](C(=O)N[C@@H](CC(N)=O)C(=O)N[C@@H](Cc1c[nH]c2ccccc12)C(=O)N[C@@H](CC(C)C)C(=O)N[C@@H](CC(C)C)C(=O)N[C@@H](C)C(=O)N[C@@H](CCC(N)=O)C(=O)N[C@@H](CCCCN)C(=O)NCC(=O)N[C@@H](CCCCN)C(=O)N[C@@H](CCCCN)C(=O)N[C@@H](CC(N)=O)C(=O)N[C@@H](CC(=O)O)C(=O)N[C@@H](Cc1c[nH]c2ccccc12)C(=O)N[C@@H](CCCCN)C(=O)N[C@@H](Cc1c[nH]cn1)C(=O)N[C@@H](CC(N)=O)C(=O)N[C@H](C(=O)N[C@H](C(=O)N[C@@H](CCC(N)=O)C(=O)O)[C@@H](C)O)[C@@H](C)CC)C(C)C)[C@@H](C)CC` [Example 16, (3I-Tyr^1, Aib^2, A5c^11, Nle^14)hGIP(1-42)-OH] were 52.1 h, 18.5 h and 5.03 nM.
Taken in the same sequence, the figures for “Desaminotyrosyl-A[Pip]GTF[Ac6c]SDYSIAMDKIHQQDFVNWLLAQKGKKNDWKHNITQ [Example 8, (4Hppa^1, hPro^3, A6c^7)hGIP(1-42)-OH]” were more than 53 h, 12.9 h and 707 nM.
Take `CCCC[C@H](NC(=O)[C@H](C)NC(=O)[C@@H](NC(=O)C1(NC(=O)[C@H](Cc2ccc(O)cc2)NC(=O)[C@H](CC(=O)O)NC(=O)[C@H](CO)NC(=O)[C@@H](NC(=O)[C@H](Cc2ccccc2)NC(=O)[C@@H](NC(=O)CNC(=O)[C@H](CCC(=O)O)NC(=O)C(C)(C)NC(=O)[C@@H](N)Cc2cc(Br)c(O)c(Br)c2)[C@@H](C)O)[C@@H](C)CC)CCCC1)[C@@H](C)CC)C(=O)N[C@@H](CC(=O)O)C(=O)N[C@@H](CCCCN)C(=O)N[C@H](C(=O)N[C@@H](Cc1c[nH]cn1)C(=O)N[C@@H](CCC(N)=O)C(=O)N[C@@H](CCC(N)=O)C(=O)N[C@@H](CC(=O)O)C(=O)N[C@@H](Cc1ccccc1)C(=O)N[C@H](C(=O)N[C@@H](CC(N)=O)C(=O)N[C@@H](Cc1c[nH]c2ccccc12)C(=O)N[C@@H](CC(C)C)C(=O)N[C@@H](CC(C)C)C(=O)N[C@@H](C)C(=O)N[C@@H](CCC(N)=O)C(=O)N[C@@H](CCCCN)C(=O)NCC(=O)N[C@@H](CCCCN)C(=O)N[C@@H](CCCCN)C(=O)N[C@@H](CC(N)=O)C(=O)N[C@@H](CC(=O)O)C(=O)N[C@@H](Cc1c[nH]c2ccccc12)C(=O)N[C@@H](CCCCN)C(=O)N[C@@H](Cc1c[nH]cn1)C(=O)N[C@@H](CC(N)=O)C(=O)N[C@H](C(=O)N[C@H](C(=O)N[C@@H](CCC(N)=O)C(=O)O)[C@@H](C)O)[C@@H](C)CC)C(C)C)[C@@H](C)CC` [Example 13, (3,5Br-Tyr^1, Aib^2, A5c^11, Nle^14)hGIP(1-42)-OH]: the half-life at 0.1 mg/ml in data set [1] is 50.6 h; in data set [2] it was 13.1 h. In addition, in data set [3], the Ki came out at 21.8 nM.
